Like-named read-outs stand apart in the source and are kept apart here.
Legend:
human Gal-1 (hGal-1) = human Gal-1 (hGal-1) (Homo sapiens (Human), UniProt P09382); test: competitive binding assay: biotinylated hGal-1 binding to microplate-adsorbed asialofetuin (ASF); settings: Table 15; read-out: IC50 (Galectin-1 inhibition)
Summary of the method: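 Spectrophotometric competition readout: after compound and biotinylated hGal-1 (300-1000 ng/mL) sit 3 h at 4° C on adsorbed asialofetuin, streptavidin-peroxidase (1 h, 4° C) and ABTS reveal residual binding. Reported IC50 values are means of repeat runs.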

human Gal-3 (hGal-3) = human Gal-3 (hGal-3) (Homo sapiens (Human), UniProt P17931); test: competitive binding assay: biotinylated hGal-3 binding to microplate-adsorbed asialofetuin (ASF)
Summary of the method: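 Serial DMSO dilutions of each compound; binding incubation of 3 hours at 4 °C with cold-buffer washes; detection using 80 ng/mL streptavidin-peroxidase for 1 hour, then ABTS. Multiple determinations were averaged to give the IC50.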

[1] = Gal-3 inhibition, binding of biotinylated hGal-3 to ASF, mean values, read-out: IC50
[2] = Table 5, read-out: IC50 (Gal-3 inhibition)

Sequence of human Gal-1 (hGal-1) (P09382 whole entry): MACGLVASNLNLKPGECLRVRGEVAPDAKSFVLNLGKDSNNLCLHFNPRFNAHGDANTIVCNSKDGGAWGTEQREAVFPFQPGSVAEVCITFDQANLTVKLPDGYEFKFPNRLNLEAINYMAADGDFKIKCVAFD
Sequence of human Gal-3 (hGal-3) (P17931 whole entry): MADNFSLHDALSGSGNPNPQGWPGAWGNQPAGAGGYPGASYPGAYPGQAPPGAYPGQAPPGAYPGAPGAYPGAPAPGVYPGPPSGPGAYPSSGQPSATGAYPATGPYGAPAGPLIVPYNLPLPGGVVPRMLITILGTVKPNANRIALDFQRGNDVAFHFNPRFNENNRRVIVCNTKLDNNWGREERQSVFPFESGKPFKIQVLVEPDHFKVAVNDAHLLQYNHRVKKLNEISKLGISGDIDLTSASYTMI

IC50 (human Gal-1 (hGal-1)) [nM] | IC50 (human Gal-3 (hGal-3); [1]) [nM] | IC50 (human Gal-3 (hGal-3); [2]) [nM] | SMILES
3000 | 730 | – | Cc1conc1C(S[C@@H]1O[C@H](CO)[C@H](O)[C@H](n2cc(-c3cc(F)c(F)c(F)c3)nn2)[C@H]1O)C(C)(C)O (stereo partly drawn) [Example 2.31.120., (2S,3R,4S,5R,6R)-2-((2-Hydroxy-2-methyl-1-(4-methylisoxazol-3-yl)propyl)thio)-6-(hydroxymethyl)-4-(4-(3,4,5-trifluorophenyl)-1H-1,2,3-triazol-1-yl)tetrahydro-2H-pyran-3,5-diol]
1800 | 320 | – | Cc1conc1[C@@H](S[C@@H]1O[C@H](CO)[C@H](O)[C@H](n2cc(-c3cc(F)c(F)c(F)c3)nn2)[C@H]1O)C(C)(C)O [Example 2.31.120R., (2S,3R,4S,5R,6R)-2-(((R)-2-Hydroxy-2-methyl-1-(4-methylisoxazol-3-yl)propyl)thio)-6-(hydroxymethyl)-4-(4-(3,4,5-trifluorophenyl)-1H-1,2,3-triazol-1-yl)tetrahydro-2H-pyran-3,5-diol]
61300 | 12400 | – | Cc1conc1[C@H](S[C@@H]1O[C@H](CO)[C@H](O)[C@H](n2cc(-c3cc(F)c(F)c(F)c3)nn2)[C@H]1O)C(C)(C)O [Example 2.31.120S., (2S,3R,4S,5R,6R)-2-(((S)-2-Hydroxy-2-methyl-1-(4-methylisoxazol-3-yl)propyl)thio)-6-(hydroxymethyl)-4-(4-(3,4,5-trifluorophenyl)-1H-1,2,3-triazol-1-yl)tetrahydro-2H-pyran-3,5-diol]
5030 | 710 | – | Cc1noc(C)c1C(S[C@@H]1O[C@H](CO)[C@H](O)[C@H](n2cc(-c3cc(F)c(F)c(F)c3)nn2)[C@H]1O)C(C)(C)O (stereo partly drawn) [Example 2.31.121., (2S,3R,4S,5R,6R)-2-((1-(3,5-Dimethylisoxazol-4-yl)-2-hydroxy-2-methylpropyl)thio)-6-(hydroxymethyl)-4-(4-(3,4,5-trifluorophenyl)-1H-1,2,3-triazol-1-yl)tetrahydro-2H-pyran-3,5-diol]
2140 | 880 | – | Cc1nc(C(S[C@@H]2O[C@H](CO)[C@H](O)[C@H](n3cc(-c4cc(F)c(F)c(F)c4)nn3)[C@H]2O)C(C)(C)O)c(C)o1 (stereo partly drawn) [Example 2.31.122., (2S,3R,4S,5R,6R)-2-((1-(2,5-Dimethyloxazol-4-yl)-2-hydroxy-2-methylpropyl)thio)-6-(hydroxymethyl)-4-(4-(3,4,5-trifluorophenyl)-1H-1,2,3-triazol-1-yl)tetrahydro-2H-pyran-3,5-diol]
670 | 370 | – | Cc1nc([C@@H](S[C@@H]2O[C@H](CO)[C@H](O)[C@H](n3cc(-c4cc(F)c(F)c(F)c4)nn3)[C@H]2O)C(C)(C)O)c(C)o1 [Example 2.31.122R., (2S,3R,4S,5R,6R)-2-(((R)-1-(2,5-Dimethyloxazol-4-yl)-2-hydroxy-2-methylpropyl)thio)-6-(hydroxymethyl)-4-(4-(3,4,5-trifluorophenyl)-1H-1,2,3-triazol-1-yl)tetrahydro-2H-pyran-3,5-diol]
11200 | 4120 | – | Cc1nc([C@H](S[C@@H]2O[C@H](CO)[C@H](O)[C@H](n3cc(-c4cc(F)c(F)c(F)c4)nn3)[C@H]2O)C(C)(C)O)c(C)o1 [Example 2.31.122S., (2S,3R,4S,5R,6R)-2-(((S)-1-(2,5-dimethyloxazol-4-yl)-2-hydroxy-2-methylpropyl)thio)-6-(hydroxymethyl)-4-(4-(3,4,5-trifluorophenyl)-1H-1,2,3-triazol-1-yl)tetrahydro-2H-pyran-3,5-diol]
5150 | 500 | – | Cc1cscc1C(S[C@@H]1O[C@H](CO)[C@H](O)[C@H](n2cc(-c3cc(F)c(F)c(F)c3)nn2)[C@H]1O)C(C)(C)O (stereo partly drawn) [Example 2.31.124., (2S,3R,4S,5R,6R)-2-((2-Hydroxy-2-methyl-1-(4-methylthiophen-3-yl)propyl)thio)-6-(hydroxymethyl)-4-(4-(3,4,5-trifluorophenyl)-1H-1,2,3-triazol-1-yl)tetrahydro-2H-pyran-3,5-diol]
2830 | 1220 | – | CCC(O)(CC)[C@H](S[C@@H]1O[C@H](CO)[C@H](O)[C@H](n2cc(-c3cc(F)c(F)c(F)c3)nn2)[C@H]1O)c1conc1C [Example 2.32.120R., (2S,3R,4S,5R,6R)-2-(((R)-2-Ethyl-2-hydroxy-1-(3-methylisoxazol-4-yl)butyl)thio)-6-(hydroxymethyl)-4-(4-(3,4,5-trifluorophenyl)-1H-1,2,3-triazol-1-yl)tetrahydro-2H-pyran-3,5-diol]
77400 | 11300 | – | CCC(O)(CC)[C@@H](S[C@@H]1O[C@H](CO)[C@H](O)[C@H](n2cc(-c3cc(F)c(F)c(F)c3)nn2)[C@H]1O)c1conc1C [Example 2.32.120S., (2S,3R,4S,5R,6R)-2-(((S)-2-Ethyl-2-hydroxy-1-(3-methylisoxazol-4-yl)butyl)thio)-6-(hydroxymethyl)-4-(4-(3,4,5-trifluorophenyl)-1H-1,2,3-triazol-1-yl)tetrahydro-2H-pyran-3,5-diol]
1800 | – | 250 | OC[C@H]1O[C@@H](SC(c2ccccc2C(F)(F)F)C2(O)CC(F)(F)C2)[C@H](O)[C@@H](n2cc(-c3cc(F)c(F)c(F)c3)nn2)[C@H]1O (stereo partly drawn) [Example 2.33.112., (2S,3R,4S,5R,6R)-2-(((3,3-Difluoro-1-hydroxycyclobutyl)(2-(trifluoromethyl)phenyl)methyl)thio)-6-(hydroxymethyl)-4-(4-(3,4,5-trifluorophenyl)-1H-1,2,3-triazol-1-yl)tetrahydro-2H-pyran-3,5-diol]
670 | – | 140 | OC[C@H]1O[C@@H](S[C@H](c2ccccc2C(F)(F)F)C2(O)CC(F)(F)C2)[C@H](O)[C@@H](n2cc(-c3cc(F)c(F)c(F)c3)nn2)[C@H]1O [Example 2.33.112R., (2S,3R,4S,5R,6R)-2-(((R)-(3,3-Difluoro-1-hydroxycyclobutyl)(2-(trifluoromethyl)phenyl)methyl)thio)-6-(hydroxymethyl)-4-(4-(3,4,5-trifluorophenyl)-1H-1,2,3-triazol-1-yl)tetrahydro-2H-pyran-3,5-diol]
21700 | – | 11300 | OC[C@H]1O[C@@H](S[C@@H](c2ccccc2C(F)(F)F)C2(O)CC(F)(F)C2)[C@H](O)[C@@H](n2cc(-c3cc(F)c(F)c(F)c3)nn2)[C@H]1O [Example 2.33.112S.]
11000 | – | 1000 | Cc1ccccc1C(S[C@@H]1O[C@H](CO)[C@H](O)[C@H](n2cc(-c3cc(F)c(F)c(F)c3)nn2)[C@H]1O)C1(O)CCC1 (stereo partly drawn) [Example 2.34.102., (2S,3R,4S,5R,6R)-2-(((1-Hydroxycyclobutyl)(o-tolyl)methyl)thio)-6-(hydroxymethyl)-4-(4-(3,4,5-trifluorophenyl)-1H-1,2,3-triazol-1-yl)tetrahydro-2H-pyran-3,5-diol]
6220 | – | 350 | Cc1ccccc1C(S[C@@H]1O[C@H](CO)[C@H](O)[C@H](n2cc(-c3cc(F)c(F)c(F)c3)nn2)[C@H]1O)C1(O)CC(C)(C)C1 (stereo partly drawn) [Example 2.35.102., (2S,3R,4S,5R,6R)-2-(((1-Hydroxy-3,3-dimethylcyclobutyl)(o-tolyl)methyl)thio)-6-(hydroxymethyl)-4-(4-(3,4,5-trifluorophenyl)-1H-1,2,3-triazol-1-yl)tetrahydro-2H-pyran-3,5-diol]
13200 | – | 460 | Cc1ccccc1C(S[C@@H]1O[C@H](CO)[C@H](O)[C@H](n2cc(-c3cc(F)c(F)c(F)c3)nn2)[C@H]1O)C1(O)CC(C)C1 (stereo partly drawn) [Example 2.36.102., (2S,3R,4S,5R,6R)-2-(((1-Hydroxy-3-methylcyclobutyl)(o-tolyl)methyl)thio)-6-(hydroxymethyl)-4-(4-(3,4,5-trifluorophenyl)-1H-1,2,3-triazol-1-yl)tetrahydro-2H-pyran-3,5-diol]
3500 | – | 440 | Cc1ccccc1[C@@H](S[C@@H]1O[C@H](CO)[C@H](O)[C@H](n2cc(-c3cc(F)c(F)c(F)c3)nn2)[C@H]1O)C1(O)CC(C)C1 (stereo partly drawn) [Example 2.36.102R., (2S,3R,4S,5R,6R)-2-(((1R)-(1-Hydroxy-3-methylcyclobutyl)(o-tolyl)methyl)thio)-6-(hydroxymethyl)-4-(4-(3,4,5-trifluorophenyl)-1H-1,2,3-triazol-1-yl)tetrahydro-2H-pyran-3,5-diol]
54200 | – | 7200 | Cc1ccccc1[C@H](S[C@@H]1O[C@H](CO)[C@H](O)[C@H](n2cc(-c3cc(F)c(F)c(F)c3)nn2)[C@H]1O)C1(O)CC(C)C1 (stereo partly drawn) [Example 2.36.102S., (2S,3R,4S,5R,6R)-2-(((1S)-(1-Hydroxy-3-methylcyclobutyl)(o-tolyl)methyl)thio)-6-(hydroxymethyl)-4-(4-(3,4,5-trifluorophenyl)-1H-1,2,3-triazol-1-yl)tetrahydro-2H-pyran-3,5-diol]
5360 | – | 560 | Cc1ccccc1C(S[C@@H]1O[C@H](CO)[C@H](O)[C@H](n2cc(-c3cc(F)c(F)c(F)c3)nn2)[C@H]1O)C1(O)CC(C)C1C (stereo partly drawn) [Example 2.37.102., (2S,3R,4S,5R,6R)-2-(((1-Hydroxy-2,3-dimethylcyclobutyl)(o-tolyl)methyl)thio)-6-(hydroxymethyl)-4-(4-(3,4,5-trifluorophenyl)-1H-1,2,3-triazol-1-yl)tetrahydro-2H-pyran-3,5-diol]
2900 | – | 180 | Cc1ccccc1C(S[C@@H]1O[C@H](CO)[C@H](O)[C@H](n2cc(-c3cc(F)c(F)c(F)c3)nn2)[C@H]1O)C1(O)CCCC1 (stereo partly drawn) [Example 2.38.102., (2S,3R,4S,5R,6R)-2-(((1-Hydroxycyclopentyl)(o-tolyl)methyl)thio)-6-(hydroxymethyl)-4-(4-(3,4,5-trifluorophenyl)-1H-1,2,3-triazol-1-yl)tetrahydro-2H-pyran-3,5-diol]

Reference: patent US12404295B2, “(Hetero)aryl-methyl-thio-beta-D-galactopyranoside derivatives” (Idorsia Pharmaceuticals Ltd, priority 2019, dated 2025)
